Each block holds one molecule with its values, some of them ahead of it.
Columns and labels:
[1] = siRNA/mRNA encapsulation rate by Ribogreen reagent (section IV); assay type: physicochemical; conditions: for % siRNA encapsulation: F7siRNA-loaded LNP, 50:10:38.5:1.5, N/P ratio 6; for % mRNA encapsulation: FlucmRNA-loaded LNP, 50:10:38.5:1.5
In short: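 LNPs diluted in TE buffer to 8 μg/mL nucleic acid for surface RNA, or to 1.2 μg/mL with 1% Triton X-100 for total RNA. RiboGreen fluorescence (ex 485/em 528 nm) quantified against a Triton-containing standard curve (0-2.5 μg/mL). Encapsulation % = (total − surface)/total × 100.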

[2] = Average particle size (ζ-Average) and PDI by dynamic light scattering (Zetasizer Nano ZSP); assay type: physicochemical
In short: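 Lipid nanoparticles dispersed in PBS(−) were sized by dynamic light scattering, giving the ζ-Average diameter and polydispersity index (PDI).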

[3] = Storage stability of FlucmRNA-loaded LNP at −80, 5, 25 and 40° C.; assay type: physicochemical; conditions: for period for which quality remained good, −80° C.: maximum storage period 1 week; for quality at production (storage stability criteria): criteria: PDI 0.2 or less, encapsulation 80% or more
In short: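 FlucmRNA-loaded LNPs held at −80, 5, 25 or 40° C; at each time point size, PDI and encapsulation measured. Quality deemed maintained while size stays within ±20 nm of preparation day, PDI ≤0.2 and encapsulation ≥80%; value is the period meeting all three.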

[4] = test system: spleen; assay: In vivo Fluc activity of FlucmRNA-loaded LNP by in vivo imaging, spleen; conditions: Balb/c mice, 6 hours; for Fluc Activity in spleen: FlucmRNA-loaded LNP i.v. 0.1 mg mRNA/kg; for Fluc activity in the spleen, compared with CL15F6: versus LNP comprising CL15F6 (Table 7)
In short: (§1)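 Female Balb/c mice, 7 weeks old, received LNP i.v. at 0.1 mg mRNA/kg. At 6 h, luciferin was given via tail vein at 1.5 mg per mouse, and liver and spleen luminescence was imaged as Avg Radiance [p/s/cm2/sr] near 560 nm.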

[5] = test system: F7; assay: In vivo F7 knockdown, plasma F7 enzyme activity (BIOPHEN FVII), Balb/c mice; conditions: for F7 enzyme activity (%) / F7 enzyme activity (Ratio using MC3 as 1): i.v. 0.025 mg siRNA/kg, plasma at 24 hours; for F7 enzyme activity (%): untreated mice as 100%; for F7 enzyme activity (Ratio using MC3 as 1): relative plasma F7 activity of MC3 LNP as 1; for knockdown activity, compared with MC3: F7siRNA-loaded LNP, versus LNP comprising MC3
In short: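 Female Balb/c mice, 5 weeks old, received F7 siRNA lipid nanoparticles i.v. at 0.025 mg siRNA/kg; plasma F7 activity measured chromogenically (BIOPHEN FVII) 24 h later. Values are % of untreated mice, also expressed as a ratio to MC3-containing nanoparticles set at 1.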

[6] = test system: liver; assay: In vivo Fluc activity of FlucmRNA-loaded LNP by in vivo imaging, liver; conditions: Balb/c mice, 6 hours; for Fluc Activity in liver: FlucmRNA-loaded LNP i.v. 0.1 mg mRNA/kg; for Fluc activity in the liver, compared with CL15F6: versus LNP comprising CL15F6 (Table 7)
In short: as §1

[7] = F7siRNA-loaded LNP, 50:10:38.5:1.5, N/P ratio 6
[8] = FlucmRNA-loaded LNP, 50:10:38.5:1.5
[9] = FlucmRNA-loaded LNP, lipid:DSPC:cholesterol:DMG-PEG2K 50:10:38.5:1.5
[10] = 0.1 mg mRNA/kg, versus LNP comprising CL4F6 (Tables 5 and 6)

SMILES: CCCCCCCCCCCCCCCC(=O)OCCCCCCC(O)(CCCCCCOC(=O)CCCCCCCCCCCCCCC)CCCCOC(=O)C1CCN(C)CC1 [CL15F 16-0]
- % siRNA encapsulation [1]: 101.0%
- % mRNA encapsulation [1]: 100.1%
- PDI [2, 7]: 0.238
- ζ-Average (nm) [2, 7]: 109.6 nm
- PDI [2, 8]: 0.234
- ζ-Average (nm) [2, 9]: 195.90 nm
- quality at production (storage stability criteria) [3]: Does not meet the criteria for “good” at production
- Fluc Activity in spleen [4]: 4.59E+05 Avg Radiance [p/s/cm2/sr]
- F7 enzyme activity (Ratio using MC3 as 1) [5]: 1.48
- Fluc Activity in liver [6]: 1.97E+05 Avg Radiance [p/s/cm2/sr]

SMILES: CCCCCCCCC(CCCCC)C(=O)OCCCCCCC(O)(CCCCCCOC(=O)C(CCCCC)CCCCCCCC)CCCCOC(=O)C1CCN(C)CC1 (stereo not drawn) [CL15F 10-5]
- % siRNA encapsulation [1]: 100.5%
- % mRNA encapsulation [1]: 99.4%
- PDI [2, 7]: 0.003
- ζ-Average (nm) [2, 7]: 111.7 nm
- PDI [2, 8]: 0.047
- ζ-Average (nm) [2, 9]: 113.90 nm
- period for which quality remained good, −80° C. [3]: 1 week
- period for which quality remained good, 5° C. ([3]; maximum storage period 5 weeks): 5 weeks
- period for which quality remained good, 25° C. ([3]; maximum storage period 5 weeks): 5 weeks
- period for which quality remained good, 40° C. (weeks) ([3]; maximum storage period 5 weeks): 5 weeks
- Fluc activity in the spleen, compared with CL15F6 ([4]; 0.1 mg mRNA/kg): higher Fluc activity
- Fluc Activity in spleen [4]: 7.55E+06 Avg Radiance [p/s/cm2/sr]
- F7 enzyme activity (Ratio using MC3 as 1) [5]: 1.33
- Fluc Activity in liver [6]: 2.70E+06 Avg Radiance [p/s/cm2/sr]

SMILES: CCCCCCCCC(CCCCCCCC)C(=O)OCCCCCCC(O)(CCCCCCOC(=O)C(CCCCCCCC)CCCCCCCC)CCCCOC(=O)C1CCN(C)CC1 [CL15F 10-8]
- % siRNA encapsulation [1]: 100.6%
- % mRNA encapsulation [1]: 99.78%
- PDI [2, 7]: 0.041
- ζ-Average (nm) [2, 7]: 99.44 nm
- PDI [2, 8]: 0.026
- ζ-Average (nm) [2, 9]: 99.84 nm
- period for which quality remained good, −80° C. [3]: 1 week
- period for which quality remained good, 5° C. ([3]; maximum storage period 5 weeks): 5 weeks
- period for which quality remained good, 25° C. ([3]; maximum storage period 5 weeks): 5 weeks
- period for which quality remained good, 40° C. (weeks) ([3]; maximum storage period 5 weeks): 5 weeks
- Fluc activity in the spleen, compared with CL15F6 ([4]; 0.1 mg mRNA/kg): higher Fluc activity
- Fluc Activity in spleen [4]: 8.42E+06 Avg Radiance [p/s/cm2/sr]
- knockdown activity, compared with MC3 [5]: higher knockdown activity
- F7 enzyme activity (Ratio using MC3 as 1) [5]: 0.52
- Fluc activity in the liver, compared with CL15F6 ([6]; 0.1 mg mRNA/kg): higher Fluc activity
- Fluc Activity in liver [6]: 1.35E+07 Avg Radiance [p/s/cm2/sr]

SMILES: CCCCCCCCCC(CCCCC)C(=O)OCCCCCCC(O)(CCCCCCOC(=O)C(CCCCC)CCCCCCCCC)CCCCOC(=O)C1CCN(C)CC1 (stereo not drawn) [CL15F 11-5]
- % siRNA encapsulation [1]: 100.3%
- % mRNA encapsulation [1]: 99.8%
- PDI [2, 7]: 0.017
- ζ-Average (nm) [2, 7]: 109.6 nm
- PDI [2, 8]: 0.010
- ζ-Average (nm) [2, 9]: 108.90 nm
- period for which quality remained good, −80° C. [3]: 1 week
- period for which quality remained good, 5° C. ([3]; maximum storage period 5 weeks): 5 weeks
- period for which quality remained good, 25° C. ([3]; maximum storage period 5 weeks): 5 weeks
- period for which quality remained good, 40° C. (weeks) ([3]; maximum storage period 5 weeks): 5 weeks
- Fluc Activity in spleen [4]: 5.01E+06 Avg Radiance [p/s/cm2/sr]
- knockdown activity, compared with MC3 [5]: higher knockdown activity
- F7 enzyme activity (Ratio using MC3 as 1) [5]: 0.78
- Fluc activity in the liver, compared with CL15F6 ([6]; 0.1 mg mRNA/kg): higher Fluc activity
- Fluc Activity in liver [6]: 9.38E+06 Avg Radiance [p/s/cm2/sr]

SMILES: CCCCCC(CCC)C(=O)OCCCCCCC(O)(CCCCCCOC(=O)C(CCC)CCCCC)CCCCOC(=O)C1CCN(C)CC1 (stereo not drawn) [CL15F 7-3]
- % siRNA encapsulation [1]: 95.7%
- % mRNA encapsulation [1]: 64.2%
- PDI [2, 7]: 0.398
- ζ-Average (nm) [2, 7]: 287.9 nm
- PDI [2, 8]: 0.369
- ζ-Average (nm) [2, 9]: 370.30 nm
- quality at production (storage stability criteria) [3]: Does not meet the criteria for “good” at production
- Fluc activity in the spleen, compared with CL15F6 ([4]; 0.1 mg mRNA/kg): higher Fluc activity
- Fluc Activity in spleen [4]: 1.48E+07 Avg Radiance [p/s/cm2/sr]
- F7 enzyme activity (Ratio using MC3 as 1) [5]: 2.08
- Fluc Activity in liver [6]: 5.34E+06 Avg Radiance [p/s/cm2/sr]

The next lines start with results.

- % siRNA encapsulation [1]: 99.9%
- % mRNA encapsulation [1]: 99.8%
- PDI [2, 7]: 0.034
- ζ-Average (nm) [2, 7]: 92.98 nm
- PDI [2, 8]: 0.020
- ζ-Average (nm) [2, 9]: 84.50 nm
- period for which quality remained good, −80° C. [3]: 1 week
- period for which quality remained good, 5° C. ([3]; maximum storage period 5 weeks): 5 weeks
- period for which quality remained good, 25° C. ([3]; maximum storage period 5 weeks): 5 weeks
- period for which quality remained good, 40° C. (weeks) ([3]; maximum storage period 5 weeks): 5 weeks
SMILES: CCCCCCCCCC(CCCCCC)C(=O)OCCCCCCC(O)(CCCCCCOC(=O)C(CCCCCC)CCCCCCCCC)CCCCN(CCC)CCC (stereo not drawn) [CL4F 11-6]
- Fluc Activity in spleen [4]: 2.54E+06 Avg Radiance [p/s/cm2/sr]
- F7 enzyme activity (%) [5]: 6%
- Fluc activity in the liver, compared with CL4F6 [6, 10]: higher Fluc activity
- Fluc Activity in liver [6]: 1.38E+08 Avg Radiance [p/s/cm2/sr]

- % siRNA encapsulation [1]: 100.1%
- % mRNA encapsulation [1]: 99.6%
- PDI [2, 7]: 0.012
- ζ-Average (nm) [2, 7]: 89.72 nm
- PDI [2, 8]: 0.019
- ζ-Average (nm) [2, 9]: 81.81 nm
- period for which quality remained good, −80° C. [3]: 1 week
- period for which quality remained good, 5° C. ([3]; maximum storage period 5 weeks): 5 weeks
- period for which quality remained good, 25° C. ([3]; maximum storage period 5 weeks): 5 weeks
- period for which quality remained good, 40° C. (weeks) ([3]; maximum storage period 5 weeks): 1 week weeks
SMILES: CCCCCCCCCC(CCCCC)C(=O)OCCCCCCC(O)(CCCCCCOC(=O)C(CCCCC)CCCCCCCCC)CCCCN(CCC)CCC (stereo not drawn) [CL4F 11-5]
- Fluc Activity in spleen [4]: 1.03E+06 Avg Radiance [p/s/cm2/sr]
- F7 enzyme activity (%) [5]: 4.3%
- Fluc Activity in liver [6]: 4.50E+07 Avg Radiance [p/s/cm2/sr]

- % siRNA encapsulation [1]: 99.8%
- % mRNA encapsulation [1]: 99.7%
- PDI [2, 7]: 0.019
- ζ-Average (nm) [2, 7]: 94.76 nm
- PDI [2, 8]: 0.021
- ζ-Average (nm) [2, 9]: 79.45 nm
- period for which quality remained good, −80° C. [3]: 1 week
- period for which quality remained good, 5° C. ([3]; maximum storage period 5 weeks): 5 weeks
- period for which quality remained good, 25° C. ([3]; maximum storage period 5 weeks): 5 weeks
- period for which quality remained good, 40° C. (weeks) ([3]; maximum storage period 5 weeks): 5 weeks
SMILES: CCCCCCCCCC(CCCCCCC)C(=O)OCCCCCCC(O)(CCCCCCOC(=O)C(CCCCCCC)CCCCCCCCC)CCCCN(CCC)CCC (stereo not drawn) [CL4F 11-7]
- Fluc Activity in spleen [4]: 2.03E+06 Avg Radiance [p/s/cm2/sr]
- F7 enzyme activity (%) [5]: 14.1%
- Fluc Activity in liver [6]: 1.23E+08 Avg Radiance [p/s/cm2/sr]

- % siRNA encapsulation [1]: 99.6%
- % mRNA encapsulation [1]: 98.6%
- PDI [2, 7]: 0.024
- ζ-Average (nm) [2, 7]: 115.60 nm
- PDI [2, 8]: 0.068
- ζ-Average (nm) [2, 9]: 93.60 nm
- period for which quality remained good, −80° C. [3]: 0 week
- period for which quality remained good, 5° C. ([3]; maximum storage period 5 weeks): 5 weeks
- period for which quality remained good, 25° C. ([3]; maximum storage period 5 weeks): 1 weeks
- period for which quality remained good, 40° C. (days) ([3]; maximum storage period 5 weeks): 0 day days
SMILES: CCCCCCCCC(CC)C(=O)OCCCCCCC(O)(CCCCCCOC(=O)C(CC)CCCCCCCC)CCCCN(CCC)CCC (stereo not drawn) [CL4F 10-2]
- Fluc activity in the spleen, compared with CL4F6 [4, 10]: higher Fluc activity
- Fluc Activity in spleen [4]: 6.40E+06 Avg Radiance [p/s/cm2/sr]
- F7 enzyme activity (%) [5]: 11.4%
- Fluc Activity in liver [6]: 3.02E+07 Avg Radiance [p/s/cm2/sr]
